This note sets out measurements from US10870641B2, “Pyridazinones as PARP7 inhibitors” (Ribon Therapeutics Inc., priority 2018, dated 2020).

The test system of test [1] is panel of cancer cell lines. Kind of test: Inhibition of cancer cell growth, 144 hours (CellTiter-Glo), GI50, Table A-3. To be noted: MDA-MIB-468 cell line, breast adenocarcinoma. The class given is cell-based. The method, then: (§1) Example C: Inhibition of Cancer Cell Growth by Treatment with PARP7 Inhibitors
(§2) Table A-2 and Table A-3 (below) represents the concentration that causes 50% growth inhibition (GI50) in a panel of cancer cell lines with Compound 18B and Compound 561. Cells were plated into 384-well plates at a pre-specified density in fetal bovine serum-containing media. Cells were treated with compound or vehicle (DMSO) 24 hrs later, and a day zero plate was collected for analysis. Test compound plates were incubated continuously for 72 hrs (Table A-2) or 144 hours (Table A-3) cell growth was assessed using a luminescent cell viability assay (CellTiter-Glo, Promega). The GI50 was determined by correcting for the cell count at time zero (time of treatment) and plotting data as percent growth relative to vehicle-treated cells.

In test [2] the test system is CT26 cells. Kind of test: Inhibition of tumor growth by oral dosing, murine CT26 colon cancer syngeneic model. In kind it is in vivo. Particulars: BALB/c mice, 125-500 mg/kg BID or 500 mg/kg QD, 21 days. An excerpt: (§3) Example H: Inhibition of Tumor Growth by Oral Dosing with a PARP7 Inhibitor
(§4) The effect of Compound 561 on tumor growth was studied in a human NCI-H1373 lung cancer xenograft and a murine CT26 colon cancer syngeneic model.
For the CT26 study, BALB/c mice were inoculated subcutaneously in the right flank with CT26 cells for tumor development. After 5 days of cell inoculation, mice with 36-79 mm^3 tumors were randomized into treatment groups with mean tumor volumes of 54 mm^3. The treatments were started from the next day post randomization (defined randomization day as day 0) and were treated with vehicle (25 or 50% Labrasol) or Compound 561 BID (2 times a day every 12 hours) at doses ranging from 125-500 mg/kg or QD (once a day) at 500 mg/kg for 21 days by oral gavage or needle subcutaneously. Tumor volumes were determined by manual calipers every 2-3 days. Mean tumor volume and SEM are plotted. BID: twice a day; PO: per oral administration; QD: once a day; SC: per subcutaneous administration. The first two doses for vehicle and Compound 561 500 mg/kg in the QD groups were delivered by subcutaneous injection. […] Statistical significance is calculated using two-way ANOVA followed by Bonferroni post-tests in which the treatment groups were compared to vehicle control (****P<0.0001).

In test [3] the test system is murine CT26 colon cancer syngeneic model. Kind of test: Tumor growth in murine CT26 colon cancer syngeneic model (FIG. 6A-C, 7B). To be noted: once or twice daily administration, FIG. 7B. The class given is in vivo, mouse.
Test [4] deals with human NCI-H1373 lung cancer xenograft. Nature of the test: Tumor growth in human NCI-H1373 lung cancer xenograft (FIG. 7A). In kind it is in vivo. To be noted: once daily administration.
Another test has as its system NCI-H1373 cells. Kind of test: Inhibition of tumor growth by oral dosing, human NCI-H1373 lung cancer xenograft. In kind it is in vivo, SCID mice.
Excerpt: as §3, §4
For the NCI-H1373 study, SCID mice were inoculated subcutaneously in the right flank with NCI-H1373 cells for tumor development. After 5 days of tumor growth, mice with 89-148 mm^3 tumors were randomized into treatment groups with mean tumor volumes of 121 mm^3. The treatments were started from the next day post randomization (defined randomization day as day 0) and were treated with vehicle (50% Labrasol) or Compound 561 (62.5, 125, 250, and 500 mg/kg) once a day for 28 days by oral gavage. Tumor volumes were determined by manual calipers every 2-3 days. Mean tumor volume and SEM are plotted. QD: once a day; PO: per oral administration. Statistical significance is calculated using two-way ANOVA followed by Bonferroni post-tests in which the treatment groups were compared to vehicle control (****P<0.0001).

Test [5] relates to panel of cancer cell lines. Nature of the test: Inhibition of cancer cell growth, 72 hrs (CellTiter-Glo), GI50, Table A-2. In kind it is cell-based. The procedure:
as §1, §2

For test [6], the system named is CT26 cells. Kind of test: Proliferation of CT26 cells in the presence of PARP7 inhibitors (CellTiter-Glo). The class given is cell-based, mouse. To be noted: 4 days incubation. The procedure: Example F: Proliferation of CT26 Cells in the Presence of PARP7 Inhibitors
CT26 cells were plated in a 384-well plate and allowed to adhere for several hours before being treated with Compound 18B. Cells were incubated with compound for 4 days prior to processing with CellTiter-Glo reagent (Promega). Luminescence was measured with a Perkin Elmer Envision and percent inhibition was calculated using the vehicle (DMSO) average as 0% inhibition. Non-linear regression analysis was performed using a 4 parameter (variable slope) fit in GraphPad Prism.

The test system of test [7] is RAW264.7 mouse macrophages. Nature of the test: Induction of interferon-beta levels in RAW264.7 macrophages in the presence of STING agonist DMXAA (FIG. 3). In kind it is cell-based.
Another test addresses TIPARP (PARP7) (Homo sapiens (Human), UniProt Q7Z3E1). Kind of test: Enzymatic assay for inhibition of PARP7: displacement of biotinylated Probe A (TR-FRET). In kind it is binding. To be noted: TR-FRET displacement of Probe A from TIPARP. The procedure: 20 nL of a dose response curve of each test compound was spotted in black 384-well polystyrene proxiplates (Perkin Elmer) using a Mosquito (TTP Labtech). […] Reactions were incubated at 25° C. for an additional 30 min, then read on an Envision plate reader equipped with a LANCE/DELFIA top mirror (Perkin Elmer) using excitation of 320 nm and emission of 615 nm and […] with a 90 μs delay. The ratio of the 665/615 nm emission were calculated for each well to determine the amount of complex of TIPARP and Probe A in each well. […] The Hill Coefficient is normally allowed to float but may also be fixed at 1 in a 3-parameter fit. Y is the % inhibition and X is the compound concentration.

The test system of test [8] is NCI-H1373 lung cancer cells. Kind of test: Inhibition of cancer cell growth in NCI-H1373 cells (FIG. 2). The class given is cell-based, human.
Test [9] deals with CT26 mouse colon cancer cells. Kind of test: Induction of interferon-beta levels in CT26 cells in the presence of STING agonist DMXAA (FIG. 3). The class given is cell-based.

Chain of TIPARP (PARP7) (Q7Z3E1 whole entry): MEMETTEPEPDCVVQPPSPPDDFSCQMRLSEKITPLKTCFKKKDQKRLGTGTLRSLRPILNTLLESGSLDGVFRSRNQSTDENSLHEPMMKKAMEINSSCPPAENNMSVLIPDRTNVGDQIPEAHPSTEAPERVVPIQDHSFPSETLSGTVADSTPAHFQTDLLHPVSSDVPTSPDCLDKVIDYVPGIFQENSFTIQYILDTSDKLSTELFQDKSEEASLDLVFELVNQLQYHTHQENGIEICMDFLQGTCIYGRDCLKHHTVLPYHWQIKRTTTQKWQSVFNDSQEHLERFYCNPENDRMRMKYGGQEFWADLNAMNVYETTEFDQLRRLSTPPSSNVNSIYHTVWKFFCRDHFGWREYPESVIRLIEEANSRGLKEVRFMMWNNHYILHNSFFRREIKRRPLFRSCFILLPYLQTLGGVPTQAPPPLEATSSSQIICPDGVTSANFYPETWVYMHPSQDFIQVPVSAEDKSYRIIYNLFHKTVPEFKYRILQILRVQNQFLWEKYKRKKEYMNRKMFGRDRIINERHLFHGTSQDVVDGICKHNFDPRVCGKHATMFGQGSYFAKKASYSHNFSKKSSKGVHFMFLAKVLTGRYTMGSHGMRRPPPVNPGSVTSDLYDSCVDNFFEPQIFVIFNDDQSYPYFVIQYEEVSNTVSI

`C[C@@H](COCCC(=O)N1CCN(c2ncc(C(F)(F)F)cn2)CC1)Nc1cn[nH]c(=O)c1C(F)(F)F` [Example 561, 5-[[(2S)-1-(3-oxo-3-[4-[5-(trifluoromethyl)pyrimidin-2-yl]piperazin-1-yl]propoxy)propan-2-yl]amino]-4-(trifluoromethyl)-2,3-dihydropyridazin-3-one] yielded a GI50 in [1] of at least 1000 nM. In addition, the tumor growth entry with CT26 cells [2] is “significantly reduces tumor growth”; in test [3], “significantly reduces tumor growth”; in test [4] it was “significantly reduces tumor growth”; in the test with NCI-H1373 cells (SCID mice, once daily oral gavage, 28 days) it was “significantly reduces tumor growth”. Also, the tumor regression entry in the test with NCI-H1373 cells (62.5 to 500 mg/kg once a day for 28 days, all dose levels) was “complete tumor regression”.

Consider `N#Cc1ccc(N2CCN(C(=O)c3cccc(OC[C@@H]4c5ccccc5CN4c4cn[nH]c(=O)c4C(F)(F)F)c3)CC2)nc1` [Example 18B, 6-[4-[(3-[[(1S)-2-[6-Oxo-5-(trifluoromethyl)-1,6-dihydropyridazin-4-yl]-2,3-dihydro-1H-isoindol-1-yl]methoxy]phenyl)carbonyl]piperazin-1-yl]pyridine-3-carbonitrile], for which the GI50 in test [5] (72 h, GSS cell line, stomach adenocarcinoma) lay in the range of 100 to 1000 nM; in test [5] (LUDLU-1, 72 h, LUDLU-1 cell line, lung squamous cell carcinoma), 100 to 1000 nM. Besides, the “proliferation in CT26 cells in vitro” value in the test on CT26 cells [6] is “do not inhibit proliferation”. The “interferon-beta (IFN-β) levels” value in [7] and in [9] was “induction of interferon-beta (IFN-β) levels” each time. The molecule also showed an IC50 at TIPARP (PARP7) below 100 nM. Also, the “growth of NCI-H1373 lung cancer cells” value in [8] is “dose-dependent decrease in growth”.
